Data from the NIST ThermoML archive (doi:10.1016/j.tca.2012.08.001).
Numbers after ± are expanded uncertainties.

Columns and labels:
[1] = refractive index (Na D-line) (dimensionless); settings: 298.2 K; 101.33 kPa; Liquid; Standard Abbe refractometry
[2] = 298.2 K; 101.33 kPa; Liquid; Vibrating tube method

| refractive index [1] | mass density [2] [kg/m3] | SMILES |
| --- | --- | --- |
| 1.3324 ± 0.2 |  | O [water] |
| 1.4344 ± 0.2 | 826.8 ± 0.36 | CCCCCCCCCCO [decan-1-ol] |
| 1.3713 ± 0.2 | 1219.32 ± 0.61 | O=CO [formic acid] |
